Experimental data from PubChem BioAssay (NCI).
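Where inhibition never reached the appropriate level, the endpoint shown equals the highest concentration tested. Otherwise, values were interpolated linearly from a five-concentration, 48-hour dose response in 96-well plates. GI50 = concentration required for 50% inhibition of growth. TGI: concentration producing complete growth inhibition.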

Experiments:
Assay in all cases: NCI tumour cell line growth inhibition, 48 h
HT29 colon = system: HT29 colon
OVCAR-4 ovarian = system: OVCAR-4 ovarian
LOX IMVI melanoma = system: LOX IMVI melanoma
MOLT-4 leukemia = system: MOLT-4 leukemia
HCC-2998 colon = system: HCC-2998 colon
UACC-257 melanoma = system: UACC-257 melanoma
UO-31 renal = system: UO-31 renal
MALME-3M melanoma = system: MALME-3M melanoma
RXF 393 renal = system: RXF 393 renal
NCI/ADR-RES ovarian = system: NCI/ADR-RES ovarian

`COc1cc(CCC(=O)NS(=O)(=O)c2ccccc2)cc(OC)c1OC` was tested, and the TGI (HT29 colon) was over 100 µM, the TGI (OVCAR-4 ovarian) was over 100 µM and the TGI (LOX IMVI melanoma) was over 100 µM. It also gave a TGI (MOLT-4 leukemia) of over 100 µM, a TGI (HCC-2998 colon) of over 100 µM and a TGI (UACC-257 melanoma) of over 100 µM. The TGI (UO-31 renal) was over 100 µM, the TGI (MALME-3M melanoma) was over 100 µM and the TGI (RXF 393 renal) was over 100 µM.
`ClC1=C(Cl)C(Cl)=C(Cl)C1=Cc1ccc(Cl)cc1Cl` gave a GI50 (HT29 colon) of 0.33 µM, a TGI (HT29 colon) of 6.4 µM and a GI50 (OVCAR-4 ovarian) of 0.53 µM. The TGI (OVCAR-4 ovarian) was 5.89 µM, the GI50 (LOX IMVI melanoma) was 0.184 µM and the TGI (LOX IMVI melanoma) was 0.384 µM. The GI50 (MOLT-4 leukemia) was 0.3 µM, the TGI (MOLT-4 leukemia) was 0.98 µM and the GI50 (HCC-2998 colon) was 0.341 µM. The TGI (HCC-2998 colon) was 1.14 µM, the GI50 (NCI/ADR-RES ovarian) was 0.276 µM and the TGI (NCI/ADR-RES ovarian) was 0.926 µM. The GI50 (RXF 393 renal) was 0.215 µM and the TGI (RXF 393 renal) was 0.477 µM.
Work on `C=C(C)C(=O)N1c2ccc(OC)cc2CC1C(=O)OCC` (stereo unspecified) yielded a TGI (HT29 colon) of over 100 µM, a TGI (OVCAR-4 ovarian) of over 100 µM and a TGI (MOLT-4 leukemia) of over 100 µM. For the same compound, the TGI (HCC-2998 colon) was over 100 µM, the TGI (NCI/ADR-RES ovarian) was over 100 µM and the TGI (UACC-257 melanoma) was over 100 µM. It also gave a TGI (UO-31 renal) of over 100 µM.
Work on `C/C(CC(=O)Nc1ccc(NC(=O)/C(C)=N/NS(=O)(=O)c2ccc(C)cc2)cc1)=N\NS(=O)(=O)c1ccc(C)cc1` yielded a TGI (HT29 colon) of over 100 µM, a TGI (LOX IMVI melanoma) of over 100 µM and a TGI (MOLT-4 leukemia) of over 100 µM. For the same compound, the TGI (HCC-2998 colon) was over 100 µM, the TGI (UACC-257 melanoma) was over 100 µM and the TGI (UO-31 renal) was over 100 µM. The TGI (MALME-3M melanoma) was over 100 µM and the TGI (RXF 393 renal) was over 100 µM.
Work on `COc1ccc2nc(C3=CN(C4OC(CO)C(O)C(O)C4O)C4C=CC=CC34)sc2c1` (stereo unspecified) yielded a GI50 (HT29 colon) of 59.9 µM, a TGI (HT29 colon) of over 100 µM and a GI50 (OVCAR-4 ovarian) of over 100 µM. It also gave a TGI (OVCAR-4 ovarian) of over 100 µM, a GI50 (LOX IMVI melanoma) of 19.4 µM and a TGI (LOX IMVI melanoma) of 56.6 µM. For the same compound, the GI50 (MOLT-4 leukemia) was 21.9 µM, the TGI (MOLT-4 leukemia) was 90.8 µM and the GI50 (HCC-2998 colon) was 22.7 µM. The TGI (HCC-2998 colon) was 53.1 µM, the GI50 (NCI/ADR-RES ovarian) was over 100 µM and the TGI (NCI/ADR-RES ovarian) was over 100 µM. For the same compound, the GI50 (UACC-257 melanoma) was 28 µM, the TGI (UACC-257 melanoma) was 89.3 µM and the GI50 (UO-31 renal) was 41.1 µM. For the same compound, the TGI (UO-31 renal) was over 100 µM, the GI50 (RXF 393 renal) was 34.6 µM and the TGI (RXF 393 renal) was over 100 µM.
Compound `NC(=O)C12CCC1C1CCCCC12N1CCOCC1` (stereo unspecified) has a TGI (HT29 colon) of over 100 µM, a TGI (OVCAR-4 ovarian) of over 100 µM and a TGI (LOX IMVI melanoma) of over 100 µM. The TGI (MOLT-4 leukemia) was over 100 µM, the TGI (HCC-2998 colon) was over 100 µM and the TGI (UO-31 renal) was over 100 µM. For the same compound, the TGI (MALME-3M melanoma) was over 100 µM and the TGI (RXF 393 renal) was over 100 µM.
For `CC(=O)NNc1nc(C)c(C(/C=C/c2ccc(Cl)cc2)=N/NC(=S)NN)s1`, the TGI (HT29 colon) was over 100 µM, the TGI (OVCAR-4 ovarian) was over 100 µM and the TGI (LOX IMVI melanoma) was over 100 µM. For the same compound, the TGI (MOLT-4 leukemia) was over 100 µM, the TGI (UACC-257 melanoma) was over 100 µM and the TGI (UO-31 renal) was over 100 µM. The TGI (MALME-3M melanoma) was over 100 µM and the TGI (RXF 393 renal) was over 100 µM.
With `COC(=O)C1=C2CO[C@@H]3C[C@H]4C(C)(C)CCC[C@]4(C)C(=CC1)[C@]23C` the GI50 (HT29 colon) was 48.4 µM, the TGI (HT29 colon) was over 100 µM and the GI50 (OVCAR-4 ovarian) was 62.1 µM. It also gave a TGI (OVCAR-4 ovarian) of over 100 µM, a GI50 (LOX IMVI melanoma) of 36.4 µM and a TGI (LOX IMVI melanoma) of over 100 µM. For the same compound, the GI50 (MOLT-4 leukemia) was 5.48 µM, the TGI (MOLT-4 leukemia) was 30.5 µM and the GI50 (UACC-257 melanoma) was 35.7 µM. The TGI (UACC-257 melanoma) was over 100 µM, the GI50 (UO-31 renal) was 60.7 µM and the TGI (UO-31 renal) was over 100 µM. For the same compound, the GI50 (MALME-3M melanoma) was 12.1 µM, the TGI (MALME-3M melanoma) was 68.5 µM and the GI50 (RXF 393 renal) was 50.9 µM. For the same compound, the TGI (RXF 393 renal) was over 100 µM.
Work on `COc1cc(C(=C2SCCS2)c2nccc3cc(OC)c(OC)cc23)c([N+](=O)[O-])cc1OC` yielded a TGI (HT29 colon) of over 100 µM, a TGI (LOX IMVI melanoma) of over 100 µM and a TGI (MOLT-4 leukemia) of over 100 µM. It also gave a TGI (HCC-2998 colon) of over 100 µM, a TGI (UACC-257 melanoma) of over 100 µM and a TGI (UO-31 renal) of over 100 µM. For the same compound, the TGI (MALME-3M melanoma) was over 100 µM and the TGI (RXF 393 renal) was over 100 µM.
